# Source: patent US20100286264A1, “COMPOSITION COMPRISING A NITROOXYDERIVATIVE OF ACETAMINOPHEN AND A ANTICONVULSANT DRUG FOR THE TREATMENT OF NEUROPATHIC PAIN” (Nicox S.A., priority 2008, published 2010)
# Tested on: spinal cord neuronal responses from adult male Wistar rats with mononeuropathy
# Assay: Recording of single motor units: nociceptive responses in rats with mononeuropathy (partial sciatic nerve ligation)
# Assay type: in vivo, rat
# Details: for Nociceptive responses to noxious mechanical stimulation: i.v., ± S.E.M.
# Procedure: The application routes were intravenous (i.v.). The enhancement of the antinociception was studied by isobolographic analysis. Mononeuropathy was induced under anesthetic regime, seven days before the experiment, using the partial ligation of the sciatic nerve technique. The development of hyperalgesia was assessed by behavioral experiments, studying withdrawal reflex responses evoked by mechanical and thermal stimulation.
Structure (SMILES),Nociceptive responses to noxious mechanical stimulation (gabapentin 20 μmol/kg alone),Nociceptive responses to noxious mechanical stimulation (gabapentin 40 μmol/kg alone),Nociceptive responses to noxious mechanical stimulation (gabapentin 80 μmol/kg alone),Nociceptive responses to noxious mechanical stimulation (gabapentin 160 μmol/kg alone),Nociceptive responses to noxious mechanical stimulation (gabapentin 320 μmol/kg alone),Nociceptive responses to noxious mechanical stimulation (compound 1 15 μmol/kg alone (gabapentin 0)),Nociceptive responses to noxious mechanical stimulation (compound 1 30 μmol/kg alone (gabapentin 0)),Nociceptive responses to noxious mechanical stimulation (compound 1 60 μmol/kg alone (gabapentin 0)),Nociceptive responses to noxious mechanical stimulation (compound 1 120 μmol/kg alone (gabapentin 0)),Nociceptive responses to noxious mechanical stimulation (compound 1 240 μmol/kg alone (gabapentin 0)),"Effect on nociceptive responses evoked by noxious mechanical and electrical stimulation (intravenous, mechanical and electrical stimulation)","ID50 for noxious mechanical stimulation (intravenous, rats with mononeuropathy, noxious mechanical stimulation) [µmol/kg]"
"NCC1(CC(=O)O)CCCCC1 [Gabapentin, reference compound]",100 ± 5 percentage of vehicle values,95 ± 1 percentage of vehicle values,95 ± 2 percentage of vehicle values,79 ± 3 percentage of vehicle values,59 ± 6 percentage of vehicle values,–,–,–,–,–,–,–
"CC(=O)Nc1ccc(OC(=O)CCCO[N+](=O)[O-])cc1 [Compound 1, 4-(nitrooxy)butanoic acid 4-(N-acetylamino)phenyl ester]",–,–,–,–,–,98 ± 6 percentage of vehicle values,95 ± 2 percentage of vehicle values,91 ± 4.5 percentage of vehicle values,86 ± 5 percentage of vehicle values,75 ± 9 percentage of vehicle values,dose-dependently reduced the nociceptive responses,542 ± 5
